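Abbreviation: GI50, concentration required for 50% inhibition of growth. TGI marks complete inhibition of growth.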
Key:
Test in all cases: NCI anticancer screen, dose series, 384-well format
[1] = tested on: TK-10 renal
[2] = tested on: M14 melanoma
[3] = tested on: NCI-H226 lung
[4] = tested on: MALME-3M melanoma
[5] = tested on: DU-145 prostate
[6] = tested on: UACC-62 melanoma
[7] = tested on: CCRF-CEM leukemia
[8] = tested on: 786-0 renal
[9] = tested on: SF-268 CNS
[10] = tested on: SF-295 CNS
[11] = tested on: T-47D breast
[12] = tested on: U251 glioblastoma
[13] = tested on: SK-MEL-28 melanoma
[14] = tested on: NCI-H322M lung
[15] = tested on: A549 NSCLC
[16] = tested on: BT-549 breast
[17] = tested on: HS 578T breast
[18] = tested on: HCC-2998 colon
[19] = tested on: SN12C renal
[20] = tested on: HOP-92 NSCLC
[21] = tested on: HT29 colon
[22] = tested on: UO-31 renal
[23] = tested on: SNB-19 CNS
[24] = tested on: A498 renal
[25] = tested on: MDA-MB-468 breast
[26] = tested on: K-562 leukemia
[27] = tested on: RPMI-8226 leukemia
[28] = tested on: MDA-MB-231 breast
[29] = tested on: SK-OV-3 ovarian

Compound Cc1cnc(NC(=O)Nc2cc(Br)c(C)cc2OC[C@@H]2CNCCO2)cn1 has a GI50 [1] of 106 nM, a TGI [1] of 366 nM and a GI50 [2] of 27.1 nM. The TGI [2] was 83.3 nM, the GI50 [3] was 5040 nM and the TGI [3] was 18100 nM. For the same compound, the GI50 [4] was 135 nM, the TGI [4] was 1340 nM and the GI50 [5] was 347 nM. For the same compound, the TGI [5] was 1490 nM, the GI50 [6] was 284 nM and the TGI [6] was 1640 nM. For the same compound, the GI50 [7] was 100 nM, the TGI [7] was 219 nM and the GI50 [8] was 101 nM. It also gave a TGI [8] of 427 nM, a GI50 [9] of 368 nM and a TGI [9] of 2940 nM. For the same compound, the GI50 [10] was 42.2 nM, the TGI [10] was 210 nM and the GI50 [11] was 1860 nM. It also gave a TGI [11] of 3630 nM, a GI50 [12] of 497 nM and a TGI [12] of 1730 nM. It also gave a GI50 [13] of 1050 nM, a TGI [13] of 2230 nM and a GI50 [14] of 195 nM. The TGI [14] was 1830 nM, the GI50 [15] was 706 nM and the TGI [15] was 14300 nM. It also gave a GI50 [16] of 84.9 nM, a TGI [16] of 258 nM and a GI50 [17] of 52.8 nM. It also gave a TGI [17] of 245 nM, a GI50 [18] of 41.4 nM and a TGI [18] of 180 nM. It also gave a GI50 [19] of 1800 nM, a TGI [19] of 6090 nM and a GI50 [20] of 106 nM. It also gave a TGI [20] of 851 nM, a GI50 [21] of 326 nM and a TGI [21] of 1120 nM. For the same compound, the GI50 [22] was 264 nM, the TGI [22] was 1850 nM and the GI50 [23] was 482 nM. It also gave a TGI [23] of 4850 nM, a GI50 [24] of 25.5 nM and a TGI [24] of 81.8 nM. For the same compound, the GI50 [25] was 485 nM, the TGI [25] was 2660 nM and the GI50 [26] was 157 nM. The TGI [26] was 323 nM, the GI50 [27] was 146 nM and the TGI [27] was 317 nM. The GI50 [28] was 608 nM, the TGI [28] was 6180 nM and the GI50 [29] was 157 nM.

— PubChem BioAssay (NCI)
